# The source made the active and inactive calls. No cut-off for these calls is given here. Where a SMILES comes first, the peptide text is derived from it. Bridges are numbered along the chain shown (N, C = ends).
# System: SARS-CoV-2
# Experiment: Antiviral activity against HIV-1 pseudotyped SARS-CoV-2 Omicron BA.2.75 infected in HEK293T cells harboring ACE2+/NRP1- assessed as reduction in infection rate pretreated with cells for 1 hr followed by viral infection and measured after 2 days by firefly luciferase reporter gene assay
# Assay type: functional, organism-based
# Details: Severe acute respiratory syndrome coronavirus 2, time 49.0 hrs
row,SMILES,Activity
1,CC[C@H](C)[C@H](NC(=O)[C@H](Cc1ccccc1)NC(=O)[C@H](CCCCN)NC(=O)[C@H](CC(=O)O)NC(=O)CN)C(=O)N[C@H]1CSSC[C@@H](C(=O)N[C@@H](CC(N)=O)C(=O)N[C@@H](Cc2c[nH]c3ccccc23)C(=O)N[C@@H](Cc2ccc(O)cc2)C(=O)N[C@@H](CC(=O)O)C(=O)N2CCC[C@H]2C(=O)N[C@@H](CCC(=O)O)C(=O)NCC(=O)NCC(=O)NCC(=O)N[C@@H](CCCCN)C(=O)NCC(=O)N[C@@H](CC(N)=O)C(=O)N[C@@H](CCCNC(=N)N)C(=O)N2CCC[C@H]2C(=O)N2CCC[C@H]2C(=O)N[C@@H](CCCNC(=N)N)C(=O)O)NC(=O)[C@H](Cc2ccccc2)NC(=O)[C@H](CCCCN)NC(=O)[C@H](Cc2c[nH]c3ccccc23)NC(=O)[C@@H]2CCCN2C(=O)[C@H](CCCCN)NC(=O)[C@H](CC(=O)O)NC(=O)[C@H](CCCNC(=N)N)NC(=O)[C@H]([C@@H](C)CC)NC(=O)[C@@H]2CCCN2C(=O)[C@H](CC(C)C)NC1=O (H-GDKFICLPIRDKPWKFCNWYDPEGGGKGNRPPR-OH; disulfide 6-17),Active
2,CC[C@H](C)[C@@H]1NC(=O)[C@@H]2CCCN2C(=O)[C@H](CO)NC(=O)[C@@H](NC(=O)[C@@H](NC(=O)[C@H](Cc2ccc(O)cc2)NC(=O)[C@H](CCCNC(=N)N)NC(=O)[C@H](CC(=O)O)NC(=O)CN)[C@@H](C)O)CSSC[C@@H](C(=O)N[C@@H](CC(=O)O)C(=O)N[C@@H](CC(C)C)C(=O)NCC(=O)N[C@@H](CC(=O)O)C(=O)N2CCC[C@H]2C(=O)N[C@@H](CCC(=O)O)C(=O)NCC(=O)NCC(=O)NCC(=O)N[C@@H](CCCCN)C(=O)N[C@@H](C)C(=O)N2CCC[C@H]2C(=O)N[C@@H](CCCNC(=N)N)C(=O)N[C@@H](CCCNC(=N)N)C(=O)N[C@@H](C)C(=O)N[C@@H](CCCNC(=N)N)C(=O)O)NC(=O)[C@H](CCCNC(=N)N)NC(=O)[C@H](Cc2c[nH]c3ccccc23)NC(=O)[C@H](Cc2c[nH]c3ccccc23)NC(=O)[C@@H]2CCCN2C(=O)[C@H](Cc2ccccc2)NC(=O)[C@H](CCSC)NC(=O)[C@H](CCCNC(=N)N)NC1=O (H-GDRYTCSPIRMFPWWRCDLGDPEGGGKAPRRAR-OH; disulfide 6-17),Active
3,CC(C)C[C@@H]1NC(=O)[C@H](C)NC(=O)[C@H](CCCNC(=N)N)NC(=O)[C@@H](NC(=O)[C@@H]2CCCN2C(=O)[C@H](CO)NC(=O)[C@H](Cc2ccc(O)cc2)NC(=O)[C@H](CC(=O)O)NC(=O)CN)CSSC[C@@H](C(=O)N2CCC[C@H]2C(=O)N[C@@H](CO)C(=O)NCC(=O)N[C@@H](CC(=O)O)C(=O)N2CCC[C@H]2C(=O)N[C@@H](CCC(=O)O)C(=O)NCC(=O)NCC(=O)NCC(=O)N[C@@H](CCCNC(=N)N)C(=O)NCC(=O)N[C@@H](CCCNC(=N)N)C(=O)N[C@@H](CCCNC(=N)N)C(=O)N2CCC[C@H]2C(=O)N2CCC[C@H]2C(=O)N[C@@H](CCCNC(=N)N)C(=O)O)NC(=O)[C@H](CCCNC(=N)N)NC(=O)[C@H](Cc2c[nH]c3ccccc23)NC(=O)[C@H](Cc2c[nH]c3ccccc23)NC(=O)[C@@H]2CCCN2C(=O)[C@H](CO)NC(=O)[C@H](Cc2cnc[nH]2)NC(=O)[C@H](CCCNC(=N)N)NC1=O (H-GDYSPCRALRHSPWWRCPSGDPEGGGRGRRPPR-OH; disulfide 6-17),Active
4,CC(C)C[C@@H]1NC(=O)[C@@H]2CCCN2C(=O)[C@H](CO)NC(=O)[C@@H](NC(=O)[C@H](Cc2cnc[nH]2)NC(=O)[C@H](CO)NC(=O)[C@H](Cc2ccccc2)NC(=O)[C@H](CC(=O)O)NC(=O)CN)CSSC[C@@H](C(=O)N[C@H](C(=O)N[C@@H](Cc2ccc(O)cc2)C(=O)N2CCC[C@H]2C(=O)N[C@@H](CC(=O)O)C(=O)N2CCC[C@H]2C(=O)N[C@@H](CCC(=O)O)C(=O)NCC(=O)NCC(=O)NCC(=O)N[C@@H](CCCCN)C(=O)N2CCC[C@H]2C(=O)N[C@@H](C)C(=O)N[C@@H](CCCNC(=N)N)C(=O)N2CCC[C@H]2C(=O)N[C@@H](C)C(=O)N[C@@H](CCCNC(=N)N)C(=O)O)[C@@H](C)O)NC(=O)[C@H](CCCCN)NC(=O)[C@H](Cc2ccccc2)NC(=O)[C@H](Cc2c[nH]c3ccccc23)NC(=O)[C@@H]2CCCN2C(=O)[C@H](Cc2ccccc2)NC(=O)[C@H](Cc2ccc(O)cc2)NC(=O)[C@H](CCCNC(=N)N)NC1=O (H-GDFSHCSPLRYFPWFKCTYPDPEGGGKPARPAR-OH; disulfide 6-17),Active
5,CC(C)C[C@H](NC(=O)[C@H](CC(=O)O)NC(=O)CN)C(=O)N[C@@H](Cc1cnc[nH]1)C(=O)N[C@@H](C)C(=O)N[C@H]1CSSC[C@@H](C(=O)N[C@H](C(=O)N[C@@H](CC(C)C)C(=O)NCC(=O)N[C@@H](CC(=O)O)C(=O)N2CCC[C@H]2C(=O)N[C@@H](CCC(=O)O)C(=O)NCC(=O)NCC(=O)NCC(=O)N[C@@H](CCCNC(=N)N)C(=O)N[C@@H](CO)C(=O)N2CCC[C@H]2C(=O)N[C@@H](CCCNC(=N)N)C(=O)N[C@@H](CCCNC(=N)N)C(=O)N[C@@H](C)C(=O)N[C@@H](CCCNC(=N)N)C(=O)O)[C@@H](C)O)NC(=O)[C@H](C)NC(=O)[C@H](Cc2c[nH]c3ccccc23)NC(=O)[C@H](Cc2c[nH]c3ccccc23)NC(=O)[C@@H]2CCCN2C(=O)[C@H](CC(=O)O)NC(=O)CNC(=O)[C@H](CCCNC(=N)N)NC(=O)[C@H](C(C)C)NC(=O)[C@@H]2CCCN2C(=O)[C@H](CCCNC(=N)N)NC1=O (H-GDLHACRPVRGDPWWACTLGDPEGGGRSPRRAR-OH; disulfide 6-17),Active

# Source: ChEMBL document CHEMBL5537120 (Eur J Med Chem, 2024)
